#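 Interpolation was linear, between the two tested concentrations surrounding the appropriate level; five concentrations were tested over 48 hours in 96-well plates. GI50 is the concentration that inhibits growth by half. TGI denotes the concentration required for complete inhibition of growth.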
# How the values were obtained:
# Assay in all cases: inhibition of tumour cell growth, NCI panel, 48 h
# [1] = system: 786-0 renal
# [2] = system: A498 renal
# [3] = system: A549 NSCLC
# [4] = system: ACHN renal
# [5] = system: BT-549 breast
# [6] = system: CAKI-1 renal
# [7] = system: CCRF-CEM leukemia
# [8] = system: DU-145 prostate
# [9] = system: EKVX NSCLC
# [10] = system: HCC-2998 colon
# [11] = system: HCT-116 colon
# [12] = system: HCT-15 colon
# [13] = system: HL-60(TB) leukemia
# [14] = system: HOP-62 NSCLC
# [15] = system: HOP-92 NSCLC
# [16] = system: HS 578T breast
# [17] = system: HT29 colon
# [18] = system: IGROV1 ovarian
# [19] = system: K-562 leukemia
# [20] = system: KM12 colon
# [21] = system: LOX IMVI melanoma
# [22] = system: M14 melanoma
# [23] = system: MALME-3M melanoma
# [24] = system: MCF7 breast
# [25] = system: MDA-MB-231 breast
# [26] = system: MDA-MB-435
# [27] = system: MDA-MB-468 breast
# [28] = system: MOLT-4 leukemia
# [29] = system: NCI-H226 lung
# [30] = system: NCI-H23 lung
# [31] = system: NCI-H460 lung
# [32] = system: NCI-H522 lung
# [33] = system: NCI/ADR-RES ovarian
# [34] = system: OVCAR-3 ovarian
# [35] = system: OVCAR-4 ovarian
# [36] = system: OVCAR-5 ovarian
# [37] = system: OVCAR-8 ovarian
# [38] = system: PC-3 prostate
# [39] = system: RPMI-8226 leukemia
# [40] = system: RXF 393 renal
# [41] = system: SF-268 CNS
# [42] = system: SF-295 CNS
# [43] = system: SF-539 CNS
# [44] = system: SK-MEL-2 melanoma
# [45] = system: SK-MEL-28 melanoma
# [46] = system: SK-MEL-5 melanoma
# [47] = system: SK-OV-3 ovarian
# [48] = system: SN12C renal
# [49] = system: SNB-19 CNS
# [50] = system: SNB-75 CNS
# [51] = system: SR leukemia
# [52] = system: SW-620 colon
# [53] = system: T-47D breast
# [54] = system: TK-10 renal
# [55] = system: U251 CNS
# [56] = system: UACC-257 melanoma
# [57] = system: UACC-62 melanoma
# [58] = system: UO-31 renal
smiles,measurement,setting,value
CCCS(=O)(=O)c1oc(-c2ccc(F)cc2)nc1S(=O)(=O)c1ccc(F)cc1,GI50,[1],1.6 µM
same,TGI,[1],3.1 µM
same,GI50,[2],17.2 µM
same,TGI,[2],31 µM
same,GI50,[3],13.3 µM
same,TGI,[3],30.6 µM
same,GI50,[4],1.61 µM
same,TGI,[4],2.96 µM
same,GI50,[5],1.98 µM
same,TGI,[5],3.57 µM
same,GI50,[6],1.43 µM
same,TGI,[6],2.76 µM
same,GI50,[7],0.298 µM
same,TGI,[7],1.09 µM
same,GI50,[8],1.59 µM
same,TGI,[8],2.96 µM
same,GI50,[9],1.62 µM
same,TGI,[9],3.27 µM
same,GI50,[10],4.05 µM
same,TGI,[10],15.9 µM
same,GI50,[11],1.6 µM
same,TGI,[11],3.49 µM
same,GI50,[12],1.22 µM
same,TGI,[12],2.73 µM
same,GI50,[13],2.17 µM
same,TGI,[13],> 100 µM
same,GI50,[14],15.7 µM
same,TGI,[14],31.1 µM
same,GI50,[15],1.8 µM
same,TGI,[15],4.08 µM
same,GI50,[16],2.33 µM
same,TGI,[16],7.43 µM
same,GI50,[17],2.06 µM
same,TGI,[17],4.9 µM
same,GI50,[18],1.84 µM
same,TGI,[18],3.84 µM
same,GI50,[19],1.64 µM
same,TGI,[19],> 100 µM
same,GI50,[20],14.5 µM
same,TGI,[20],31 µM
same,GI50,[21],1.28 µM
same,TGI,[21],2.6 µM
same,GI50,[22],1.68 µM
same,TGI,[22],3.56 µM
same,GI50,[23],1.49 µM
same,TGI,[23],2.83 µM
same,GI50,[24],1.3 µM
same,TGI,[24],3.08 µM
same,GI50,[25],1.65 µM
same,TGI,[25],3.04 µM
same,GI50,[26],1.45 µM
same,TGI,[26],2.98 µM
same,GI50,[27],1.29 µM
same,TGI,[27],2.89 µM
same,GI50,[28],1.14 µM
same,TGI,[28],> 100 µM
same,GI50,[29],13 µM
same,TGI,[29],34.8 µM
same,GI50,[30],1.9 µM
same,TGI,[30],4.22 µM
same,GI50,[31],4.46 µM
same,TGI,[31],19.4 µM
same,GI50,[32],1.19 µM
same,TGI,[32],2.64 µM
same,GI50,[33],2.36 µM
same,TGI,[33],6.35 µM
same,GI50,[34],1.35 µM
same,TGI,[34],2.77 µM
same,GI50,[35],1.86 µM
same,TGI,[35],4.04 µM
same,GI50,[36],3.48 µM
same,TGI,[36],13.7 µM
same,GI50,[37],2.12 µM
same,TGI,[37],4.99 µM
same,GI50,[38],3.51 µM
same,TGI,[38],16.7 µM
same,GI50,[39],2.22 µM
same,TGI,[39],7.44 µM
same,GI50,[40],1.1 µM
same,TGI,[40],2.44 µM
same,GI50,[41],3.18 µM
same,TGI,[41],14.7 µM
same,GI50,[42],12.6 µM
same,TGI,[42],25.5 µM
same,GI50,[43],1.55 µM
same,TGI,[43],2.89 µM
same,GI50,[44],10.4 µM
same,TGI,[44],22.7 µM
same,GI50,[45],1.74 µM
same,TGI,[45],3.17 µM
same,GI50,[46],3.32 µM
same,TGI,[46],12 µM
same,GI50,[47],16.3 µM
same,TGI,[47],30.9 µM
same,GI50,[48],2.62 µM
same,TGI,[48],9.51 µM
same,GI50,[49],15 µM
same,TGI,[49],28.2 µM
same,GI50,[50],4.23 µM
same,TGI,[50],18.4 µM
same,GI50,[51],1.6 µM
same,TGI,[51],> 100 µM
same,GI50,[52],0.685 µM
same,TGI,[52],2.17 µM
same,GI50,[53],1.83 µM
same,TGI,[53],4.2 µM
same,GI50,[54],1.88 µM
same,TGI,[54],3.35 µM
same,GI50,[55],16.4 µM
same,TGI,[55],30.6 µM
same,GI50,[56],1.62 µM
same,TGI,[56],3.13 µM
same,GI50,[57],1.68 µM
same,TGI,[57],3.11 µM
same,GI50,[58],1.46 µM
same,TGI,[58],2.78 µM

# Reference: PubChem BioAssay (NCI)
